Reference: patent US20070224648A1, “Methods and compositions for the diagnosis of treatment of type 2 diabetes” (The Chancellor, Masters and Scholars of the University of …, priority 2005, published 2007)
Blank lines part the entries; values can stand above or below the molecule they belong to.

Experiments:
[1] = target: T1, KATP channels from C57BL/6J β-cells (Mus musculus, UniProt Q61743); assay: ATP sensitivity of KATP channels in inside-out patches; type: biochemical
T1 construct: inside-out patches excised from a C57BL/6J or CH3/HeH β-cell; endogenous in cells; host or cells: primary pancreatic β-cells isolated from C57BL/6J and C3H/HeH mice
T1 sequence (Q61743 whole entry): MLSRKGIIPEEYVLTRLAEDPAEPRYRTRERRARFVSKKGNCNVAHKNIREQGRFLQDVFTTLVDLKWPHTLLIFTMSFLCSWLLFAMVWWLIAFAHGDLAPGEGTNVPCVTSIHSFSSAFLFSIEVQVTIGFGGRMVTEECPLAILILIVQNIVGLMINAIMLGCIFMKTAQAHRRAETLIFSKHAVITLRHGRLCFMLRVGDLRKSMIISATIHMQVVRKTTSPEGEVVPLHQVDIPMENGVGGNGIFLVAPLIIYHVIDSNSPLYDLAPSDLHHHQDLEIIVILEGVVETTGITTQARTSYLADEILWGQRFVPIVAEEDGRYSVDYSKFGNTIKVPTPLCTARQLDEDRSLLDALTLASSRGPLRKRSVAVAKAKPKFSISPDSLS
T1 sequence (B2RUS7 1-1588 partner): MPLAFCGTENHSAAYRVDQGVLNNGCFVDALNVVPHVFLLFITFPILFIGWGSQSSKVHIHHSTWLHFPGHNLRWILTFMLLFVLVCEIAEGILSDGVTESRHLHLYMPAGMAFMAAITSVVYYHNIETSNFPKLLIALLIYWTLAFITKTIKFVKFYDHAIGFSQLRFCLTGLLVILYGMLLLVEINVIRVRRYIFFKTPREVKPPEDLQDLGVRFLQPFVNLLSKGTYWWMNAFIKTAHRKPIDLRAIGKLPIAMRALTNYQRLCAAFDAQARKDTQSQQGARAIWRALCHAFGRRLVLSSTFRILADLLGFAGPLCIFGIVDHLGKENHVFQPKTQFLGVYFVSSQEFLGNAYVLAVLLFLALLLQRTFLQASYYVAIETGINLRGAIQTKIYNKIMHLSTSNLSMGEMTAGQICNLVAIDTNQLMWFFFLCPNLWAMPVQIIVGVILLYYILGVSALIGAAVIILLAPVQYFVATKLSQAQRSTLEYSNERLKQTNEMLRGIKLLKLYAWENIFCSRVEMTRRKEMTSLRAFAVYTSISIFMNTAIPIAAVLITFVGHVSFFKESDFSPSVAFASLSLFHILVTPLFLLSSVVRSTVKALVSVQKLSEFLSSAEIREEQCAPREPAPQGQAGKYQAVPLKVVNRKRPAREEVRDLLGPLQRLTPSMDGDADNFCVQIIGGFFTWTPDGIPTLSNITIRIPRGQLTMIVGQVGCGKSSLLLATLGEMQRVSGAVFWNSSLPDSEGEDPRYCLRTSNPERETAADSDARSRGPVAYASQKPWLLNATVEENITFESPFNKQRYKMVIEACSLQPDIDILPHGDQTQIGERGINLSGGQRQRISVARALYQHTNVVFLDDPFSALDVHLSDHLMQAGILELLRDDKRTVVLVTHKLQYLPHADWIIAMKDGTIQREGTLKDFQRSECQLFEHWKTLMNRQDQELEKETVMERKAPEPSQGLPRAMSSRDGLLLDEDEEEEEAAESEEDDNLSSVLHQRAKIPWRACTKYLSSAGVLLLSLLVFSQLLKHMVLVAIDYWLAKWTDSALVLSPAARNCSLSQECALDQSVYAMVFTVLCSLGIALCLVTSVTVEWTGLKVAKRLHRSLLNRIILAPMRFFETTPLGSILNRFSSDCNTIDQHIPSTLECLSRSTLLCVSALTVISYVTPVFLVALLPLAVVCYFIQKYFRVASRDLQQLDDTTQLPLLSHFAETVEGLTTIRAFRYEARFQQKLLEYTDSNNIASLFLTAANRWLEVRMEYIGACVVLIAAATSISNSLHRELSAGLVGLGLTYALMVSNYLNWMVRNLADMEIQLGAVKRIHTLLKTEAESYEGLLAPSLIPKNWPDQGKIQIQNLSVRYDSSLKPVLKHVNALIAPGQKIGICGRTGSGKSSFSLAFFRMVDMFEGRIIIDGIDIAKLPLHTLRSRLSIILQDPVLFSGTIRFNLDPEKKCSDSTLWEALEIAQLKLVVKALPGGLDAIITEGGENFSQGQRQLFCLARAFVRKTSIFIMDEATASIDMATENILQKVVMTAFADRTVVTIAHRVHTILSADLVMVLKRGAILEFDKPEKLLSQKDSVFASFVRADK
Experimental: The ATP sensitivity of KATP channels was measured at −60 mV in inside-out patches. Currents were digitized at 5 kHz and filtered at 2 kHz. The pipette (extracellular) contained (mmol/l): 140 KCl, 2.6 CaCl2, 1.2 MgCl2, 10 HEPES (pH 7.4 with KOH). The bath (intracellular) solution contained (mmol/l): 107 KCl, 1 MgCl2, 1 CaCl2, 10 HEPES (pH 7.2 with KOH), and K2ATP as indicated.
Concentration-response relations were obtained by alternating test solutions with control (glucose- or ATP-free) solution. The control conductance was taken as the mean of that obtained in control solution before and after application of the test agent. The current in the presence of glucose or nucleotide (I) is plotted as a fraction of that obtained in control solution (IC). Data were fit with the Hill equation: I/IC=1/(1+([X]/IC50)h) where [X] is the concentration of glucose or ATP, IC50 is the concentration giving half-maximal inhibition of the current and h is the Hill coefficient. Data are given as mean±one S.E.M.

[2] = system: isolated wild-type islets; assay: Glucose utilization in isolated pancreatic islets; type: cell-based, mouse; conditions: H2O2, 20 mM glucose
Experimental: FIG. 19: Glucose utilization in pancreatic islets isolated wild-type and homozygous NNT mutant mice (G745D). Each data point is the mean of 6 replicates each of 5 islets. Glucose utilization was measured as described in Ashcroft S J H, Weerasinghe L C C, Bassett J M, Randle P J: The pentose cycle and insulin release in mouse pancreatic islets. Biochem J (1972) 126, 525-532. Briefly, And these islets were placed in 20 microlitres of medium containing [3H]glucose and various concentrations of unlabelled glucose (as indicated). The tubes were placed in outer vials containing 0.5 ml of water. After 2-hours of incubation, metabolism was terminated by applying 5 microlitres of HCl. Then these samples were incubated for more than 18-24 hours to allow [3H]water in the incubation tube to equilibrate with the water in outer vial. Then, radioactivity of the water in the outer vial was measured. Control samples without islets were used to correct for background counts.
FIG. 20: Effect of H2O2 on glucose utilization in isolated wild-type islets. Each data point is the mean of 6 replicates each of 5 islets.

rodent islets = conditions: cited from earlier work
MIN6 cells [3] = assay: Fura-2 calcium imaging in MIN6 cells; type: cell-based; conditions: for calcium response to glucose: 1 mM glutathione for 4 hours, Nnt siRNA transfected cells
Experimental: (§1) MIN6 cells were cultured on 35mm Fluorodishes (World Precision Instruments) and incubated with 3 μM Fura-2-AM (Molecular Probes) for 40 min at 37° C. They were imaged at room temperature (20-24° C.) using an IonOptix fluorescence system (Boston, Mass.), with 340 nm and 380 nm dual excitation. The 510 nm emission ratio was collected at 1 Hz. Background subtraction was performed by measuring fluorescence from a cell-free region in the field of view. Cells were perfused continuously with extracellular solution containing (mM): 137 NaCl, 5.6 KCl, 2.6 CaCl2, 1.2 MgCl2, 10 HEPES (pH 7.4 with NaOH) plus glucose or tolbutamide as indicated.

MIN6 cells [4] = assay: Insulin secretion from MIN6 cells; type: cell-based; conditions: for insulin secretory response: 1 mM glutathione for 4 hours, Nnt siRNA transfected cells; for insulin secretion: tolbutamide 200 μM
[5] = system: type-2 diabetic human islets; conditions: cited from earlier work
[6] = system: human and rodent pancreatic islets; conditions: preincubation in 15 μM metformin; cited from earlier work
[7] = system: isolated pancreatic islets; assay: Insulin secretion from isolated pancreatic islets
[8] = system: β-cells isolated from C57BL/6J and C3H/HeH mice; assay: Fura-2 imaging of intracellular calcium in isolated β-cells; type: cell-based, mouse; conditions: 500 μmol/l tolbutamide; C57BL/6J and C3H/HeH β-cells
Experimental: as §1, with “Islet” for “MIN6”, “35 mm” for “35mm”, “Instruments, Stevenage, UK)” for “Instruments)”, “Probes, Paisley, UK)” for “Probes)”, “(as in perforated-patch experiments),” for “containing (mM): 137 NaCl, 5.6 KCl, 2.6 CaCl2, 1.2 MgCl2, 10 HEPES (pH 7.4 with NaOH)”, “indicated. Only data from cells that responded to 500 μmol/l tolbutamide were analysed.” for “indicated.”

Hill coefficient h, ATP on KATP channel activity ([1]; inside-out patches, n=5): 0.89±0.06
IC50 ([1]; read-out: half-maximal inhibition of C57BL/6J KATP channels by ATP (IC50)): 10 µM
SMILES: Nc1ncnc2c1ncn2[C@@H]1O[C@H](COP(=O)(O)OP(=O)(O)OP(=O)(O)O)[C@@H](O)[C@H]1O [ATP]

SMILES: OO [H2O2]
glucose utilization [2]: significantly increases glucose utilization
insulin secretion (rodent islets; H2O2, rodent β-cells): inhibits insulin secretion

SMILES: N[C@@H](CCC(=O)N[C@@H](CS)C(=O)NCC(=O)O)C(=O)O [glutathione]
calcium response to glucose (MIN6 cells [3]): partially reversed the impaired calcium
calcium response to glucose (MIN6 cells [3]; listed as Glutathione): partially restores the calcium response
insulin secretory response (MIN6 cells [4]): partially reversed the impaired calcium and insulin secretory responses
insulin secretory response (MIN6 cells [4]; listed as Glutathione): partially restores the insulin secretory response
secretory response to glucose ([5]; 24-hour culture with 30 μM glutathione): improved significantly

SMILES: CN(C)C(=N)N=C(N)N [metformin]
insulin secretion ([5]; preincubation in 15 μM metformin): partially restores insulin secretion in type-2 diabetic human islets
glucose-stimulated insulin secretion (rodent islets; incubation at 1 mM metformin): reduces glucose-stimulated insulin secretion
protection from deleterious effects of elevated lipids [6]: protects human and rodent pancreatic islets from the deleterious effects of elevated lipids
glucose-stimulated insulin secretion ([7]; Nnt-G745D islets, 24-hour preincubation in 15 μM metformin): restored glucose-stimulated insulin secretion in pancreatic islets from the Nnt-G745D mutant mouse
glucose-stimulated insulin secretion ([7]; Nnt-G745D islets, 24-hour preincubation in 15 μM metformin, listed as Metformin): restores insulin secretion in Nnt mouse pancreatic islets
glucose-stimulated insulin secretion ([7]; WT islets, 24-hour preincubation in 15 μM metformin): little effect on wild-type (WT) pancreatic islets
glucose-stimulated insulin secretion ([7]; acute exposure to metformin): without effect

SMILES: CCCCNC(=O)NS(=O)(=O)c1ccc(C)cc1 [tolbutamide]
change in [Ca2+]i [8]: rise in [Ca2+]i
increase in [Ca]i (MIN6 cells [3]; tolbutamide 200 μM, nonsense vs Nnt siRNA transfected cells): stimulated a similar increase in [Ca]i in both cells transfected with nonsense and Nnt siRNA
calcium response (MIN6 cells [3]; tolbutamide 200 μM, nonsense, Nnt, UCP2 or UCP2+Nnt siRNA transfected cells): stimulated a calcium response
insulin secretion (MIN6 cells [4]; nonsense vs Nnt siRNA transfected cells): elicited equivalent responses in both nonsense and Nnt siRNA transfected cells
insulin secretion (MIN6 cells [4]; nonsense, Nnt, UCP2, UCP2/Nnt or Gck siRNA transfected cells): stimulated a calcium response and insulin secretion
insulin secretion ([7]; tolbutamide, B6-TG vs B6-TG negative islets): stimulated secretion comparably in both strains
